Source: patent US8426342B2, “Method for weed control in lawn” (priority 2008, dated 2013)
Marks after values point to notes of the source that are not given here.

Key:
Capsella bursa pastoris = test: Greenhouse herbicidal effect in weed control ex. 6.2, 2- to 3-leaves stage; assay type: in vivo
Excerpt: (§1) That means, when applying the combinations according to the invention, herbicidal effects are observed on a harmful plant species which exceed the formal total of the effects of the herbicides present when these are applied by themselves. Alternatively, it is observed in some cases that a lower application rate is required for the herbicide combination in order to achieve the same effect on a harmful plant species in comparison with the individual products.
(§2) When the data observed already exceed the formal total (=E^A) of the data in the experiments with individual applications, they likewise exceed the expected value according to Colby, which is calculated using the formula below and is likewise regarded as an indication of synergism (cf. S. R. Colby; in Weeds 15 (1967) pp. 20 to 22): E=A+B−(A·B/100)
(§3) In this formula: • A=action of active compound (A) in % at an application rate of a g of AS/ha; • B=action of active compound (B) in % at an application rate of b g of AS/ha; • E=expected value of the action of the combination (A)+(B) in % at the combined application rate a+b g of AS/ha.
(§4) The data observed in the experiments show, at suitably low dosages, an action of the combinations which exceeds the expected values according to Colby (=E^C).

weed plants = test: Greenhouse herbicidal effect in weed control ex. 6.2 (Tables 34 to 37); assay type: in vivo; details: post-emergence; for Herbicidal effect (%) 7 DAT on Trifolium pratense: 3-leaves stage
Description: as §2

[1] = system: monocotyledonous and dicotyledonous weed plants; test: Field trial ex. 7.1, weed control in pre-emergence application, 12 DAT (Tables 38, 39); assay type: in vivo
Description: as §2
Seeds or rhizome pieces of monocotyledonous and dicotyledonous weed plants were placed in the field in sandy loam soil and covered with soil. […] 12 days after application (12 DAT), the herbicidal effect on the developed weed plants was visually evaluated as percent (%) herbicidal effect compared to untreated control plants.

[2] = system: monocotyledonous and dicotyledonous weed plants; test: Field trial ex. 7.2, weed control in post-emergence application (Table 40); assay type: in vivo; details: 2-leaves stage, 12 DAT
Description: as §2, §3
(§5) Seeds or rhizome pieces of monocotyledonous and dicotyledonous weed plants and specific warm season turf grasses were placed in the field in sandy loam soil, covered with soil and grown until the plants had reached the leaves stage indicated in the tables. […] The herbicidal effect was visually evaluated as percent (%) herbicidal effect compared to untreated control plants. The results are summarized in Table 40 below and show a synergistic increase in herbicidal effect of the mixtures of active ingredients and a good safety of the turf grass.

[3] = system: specific warm season turf grasses; test: Field trial ex. 7.2, turf grass safety in post-emergence application (Table 40); assay type: in vivo
Excerpt: as §5

Cynodon dactylon = test: Greenhouse selectivity testing ex. 6.1, turf grass plants in 1-leaf stage, % injury
Description: Turf grass plants were grown in sandy loam soil in the greenhouse under good growing conditions up to the 1-leaf stage. In parallel tests, a formulation (water-dispersable powder) containing a mixture of the compounds no. […] The turf grass plants were further kept under good growing conditions. 7 days after application the selectivity was visually evaluated as percent (%) injury compared to untreated control plants.

Taraxacum officinalis = test: Greenhouse herbicidal effect in weed control ex. 6.2, 1- to 2-leaves stage; assay type: in vivo
Excerpt: as §1, §2, §3, §4

[4] = Cynodon dactylon, in vivo, 7 days after application

N#Cc1cc(Br)c(O)c(Br)c1 [Bromoxynil]
Herbicidal effect (%) 7 DAT on Capsella bursa pastoris (Capsella bursa pastoris; 100 g a.i./ha): 30%

CCOC(=O)C(Cl)Cc1cc(-n2nc(C)n(C(F)F)c2=O)c(F)cc1Cl (stereo not drawn) [Carfentrazone-ethyl]
Herbicidal effect (%) 7 DAT on Trifolium pratense (weed plants; 8 g a.i./ha): 0%
Herbicidal effect (%) 12 DAT on Brachiaria decumbens ([1]; Table 39, field, 15 g a.i./ha): 0%
Herbicidal effect (%) on Commelina benghalensis ([2]; 15 g a.i./ha): 59%
Herbicidal effect (%) on Paspalum notatum (warm season turf grass) ([3]; field, post-emergence, 3-leaves stage, 15 g a.i./ha, 7 DAT): 0%

CCOc1ccccc1OS(=O)(=O)NC(=O)Nc1nc(OC)cc(OC)n1 [Ethoxysulfuron]
Selectivity evaluation (% injury) 7 DAT on Cynodon dactylon (Cynodon dactylon; [4]): 0%
Herbicidal effect (%) 7 DAT on Capsella bursa pastoris (Capsella bursa pastoris; 20 g a.i./ha): 50%
Herbicidal effect (%) 12 DAT on Brachiaria decumbens ([1]; Table 38, field, 30 g a.i./ha): 0%

CCOC(=O)[C@@H](C)Oc1ccc(Oc2nc3ccc(Cl)cc3o2)cc1 [Fenoxaprop-P-ethyl]
Herbicidal effect (%) 7 DAT on Trifolium pratense (weed plants; 45 g a.i./ha): 0%
Herbicidal effect (%) 12 DAT on Brachiaria decumbens ([1]; Table 39, field, 60 g a.i./ha): 0%

Nc1c(Cl)c(F)nc(OCC(=O)O)c1Cl [Fluroxypyr]
Selectivity evaluation (% injury) 7 DAT on Cynodon dactylon (Cynodon dactylon; [4]): 0%
Herbicidal effect (%) 7 DAT on Capsella bursa pastoris (Capsella bursa pastoris; 100 g a.i./ha): 60%

O=C(O)CNCP(=O)([O-])O.[K+] [Glyphosate-potassium salt (K salt)]
Herbicidal effect (%) 12 DAT on Brachiaria decumbens ([1]; Table 39, field, 620 g a.i./ha): 0%
Herbicidal effect (%) 12 DAT on Brachiaria decumbens ([1]; Table 39, field, 840 g a.i./ha): 0%
Herbicidal effect (%) on Commelina benghalensis ([2]; 620 g a.i./ha): 62%
Herbicidal effect (%) on Commelina benghalensis ([2]; 840 g a.i./ha): 62%
Herbicidal effect (%) on Paspalum notatum (warm season turf grass) ([3]; field, post-emergence, 3-leaves stage, 620 g a.i./ha, 7 DAT, turf grass used is not glyphosate tolerant): 23^5) %
Herbicidal effect (%) on Paspalum notatum (warm season turf grass) ([3]; field, post-emergence, 3-leaves stage, 840 g a.i./ha, 7 DAT, turf grass used is not glyphosate tolerant): 40^5) %

O=C(O)CNCP(=O)(O)O [Glyphosate]
Herbicidal effect (%) 7 DAT on Taraxacum officinalis (Taraxacum officinalis; 200 g a.i./ha): 40%

Cc1cc(Cl)ccc1OCC(=O)O [MCPA, reference compound]
Selectivity evaluation (% injury) 7 DAT on Cynodon dactylon (Cynodon dactylon; 500 g a.i./ha, 7 DAT, greenhouse, 1-leaf stage): 0%
Herbicidal effect (%) 7 DAT on Trifolium pratense (weed plants; 500 g a.i./ha): 30%

Cc1cc(Cl)ccc1O[C@@H](C)C(=O)O [Mecoprop-P]
Herbicidal effect (%) 7 DAT on Taraxacum officinalis (Taraxacum officinalis; 500 g a.i./ha): 20%

COC(=O)c1ccc(CNS(C)(=O)=O)cc1S(=O)(=O)NC(=O)Nc1nc(OC)cc(OC)n1 [Mesosulfuron-methyl, reference compound]
Selectivity evaluation (% injury) 7 DAT on Cynodon dactylon (Cynodon dactylon; 5 g a.i./ha, 7 DAT, greenhouse, 1-leaf stage): 0%
Herbicidal effect (%) 12 DAT on Brachiaria decumbens ([1]; Table 38, field, 5 g a.i./ha): 0%
Herbicidal effect (%) on Commelina benghalensis ([2]; 5 g a.i./ha): 47%
Herbicidal effect (%) on Paspalum notatum (warm season turf grass) ([3]; in vivo): 0%

COc1cc(OC)n2nc(S(=O)(=O)Nc3c(Cl)ccc(C)c3Cl)nc2n1 [Metosulam]
Selectivity evaluation (% injury) 7 DAT on Cynodon dactylon (Cynodon dactylon; [4]): 0%
Herbicidal effect (%) 7 DAT on Taraxacum officinalis (Taraxacum officinalis; 10 g a.i./ha): 10%

COC(=O)c1ccccc1S(=O)(=O)NC(=O)Nc1nc(C)nc(OC)n1 [Metsulfuron-methyl]
Herbicidal effect (%) 7 DAT on Trifolium pratense (weed plants; 5 g a.i./ha): 30%

Nc1c(Cl)c(Cl)nc(C(=O)O)c1Cl [Picloram, reference compound]
Selectivity evaluation (% injury) 7 DAT on Cynodon dactylon (Cynodon dactylon; 300 g a.i./ha, 7 DAT, greenhouse, 1-leaf stage): 0%
Herbicidal effect (%) 7 DAT on Echinocloa crus-galli (weed plants; 3- to 4-leaves stage, 300 g a.i./ha): 30%

CCS(=O)(=O)c1cccnc1S(=O)(=O)NC(=O)Nc1nc(OC)cc(OC)n1 [Rimsulfuron, reference compound]
Selectivity evaluation (% injury) 7 DAT on Cynodon dactylon (Cynodon dactylon; [4]): 10%
Herbicidal effect (%) 7 DAT on Trifolium pratense (weed plants; 5 g a.i./ha): 40%
